The test system of assay [1] is cellular pERK in Kuramochi (WT KRAS) cell-line. Kind of assay: Cell based pERK assay (HTRF), Kuramochi. Conditions: Kuramochi (WT KRAS) cells, 2 hours incubation. As for the experimental part:
(§1) Compounds were tested in a 384-well assay format for their ability to inhibit cellular pERK in Kuramochi (WT KRAS), MIA-PaCa-2 (KRAS-G12C), ASPC-1 (KRAS G12D), and NCI-H441 (KRAS-G12V) cell-lines. Compounds were serially diluted (1:3) in DMSO. On day −1, 80 uL of cells were plated per well in the 384 well tissue-culture plates (Greiner: Cat #781080) to seed 5000 cells per wells of AsPC-1 or 7500 cells of MIA-PaCa-2, NCI-H441, and Kuramochi cell lines in RPMI (Corning: Cat #10-040-CM) with 10% fetal bovine serum (FBS) (HyClone: Cat #SH30071-03) and 1× penicillin-streptomycin-glutamate (PSG) (Corning: Cat #30-009-CI) for […] and Kuramochi cell lines and DMEM (Corning: Cat #15-018-CM) with […] and 1× PSG for MKA-PaCa-2 cell line. The plates were then incubated overnight at 37° C. and 5% CO2. On day 0, 400 nL of compound/well was added into the cell plates and mixed 5 times by pipetting using a Beckmann Biomek FX. The cell plates were then incubated for 2 hours at 37° C. and 5% CO2. HTRF Advanced Phospho-ERK1/2 ([…]) Detection Kits (PerkinElmer: Cat #64AERPEG) were used to prepare the lysis and detection solution according to manufacturer protocol. Following the 2 hour incubation, 70 μL of medium was aspirated from the plates and 10 uL of lysis and detection solution was added to the plates using a Biotek EL406 washer and dispenser. Plates were sealed and stored overnight at room temperature. HTRF ratio (665 nm/615 nm) was read by Envision multimode reader (PerkinElmer) the next day. The TR-FRET ratios were normalized to a positive (saturating concentration of known inhibitor) and negative (DMSO) control and plotted against the log of compound concentration. IC50 values were defined as the compound concentration that causes a […] in normalized signal and were calculated using a sigmoidal dose-response model to generate curve fits.

Assay [2] relates to cellular pERK in MIA-PaCa-2 (KRAS-G12C) cell-line. Kind of assay: Cell based pERK assay (HTRF), MIA-PaCa-2. Conditions: MIA-PaCa-2 (KRAS-G12C) cells, 2 hours incubation, read-out: MIAPaCa2 pERK EC50. The procedure: as §1
For assay [3], the system named is cellular pERK in NCI-H441 (KRAS-G12V) cell-line. Kind of assay: Cell based pERK assay (HTRF), NCI-H441. Conditions: NCI-H441 (KRAS-G12V) cells, 2 hours incubation. The procedure:
as §1
For orientation: TR-FRET usually uses a lanthanide donor and a delayed reading to cut background.

In assay [4] the test system is cellular pERK in ASPC-1 (KRAS G12D) cell-line. In words: Cell based pERK assay (HTRF), ASPC-1. Conditions: ASPC-1 (KRAS G12D) cells, 2 hours incubation. The procedure: as §1

Each structure is given as a SMILES string. Like-named read-outs stand apart in the source and are kept apart here. Some results are limits rather than exact numbers.

Results on 19 molecules are retold here after patent US20240383922A1, “KRAS Modulating Compounds” (Gilead Sciences, Inc., priority 2023, published 2024).

A word on the EC50: it is the concentration at which the effect is half-maximal. With `C#Cc1c(F)c(F)cc2cc(N)cc(-c3nc4c5c(nc(OC[C@@]67CCCN6C/C(=C\F)C7)nc5c3F)N3CCCOC[C@@H]3CC4)c12` [Example 23-2], the EC50 in assay [1] turned out to be 1.37 nM; in assay [2] (Homo sapiens), 0.87 nM; in assay [3] (Homo sapiens) it was 1.67 nM; in assay [4] (Homo sapiens, ASPC1), 5.33 nM.

`C#Cc1c(F)ccc2cc(O)cc(-c3nc4c5c(nc(OC[C@@]67CCCN6C[C@H](F)C7)nc5c3F)N3CC(F)(F)COC[C@@H]3CC4)c12` (single isomer, unassigned) [Example 17-2]: the EC50 amounted to 2.29 nM in assay [1]; 1.3 nM in assay [2] (Homo sapiens); 5.1 nM in assay [3] (Homo sapiens); 10.8 nM in assay [4] (Homo sapiens, ASPC1).

Take `C#Cc1c(F)ccc2cc(O)cc(-c3nc4c5c(nc(OC[C@@]67CCCN6C[C@H](F)C7)nc5c3F)N3CCCOC[C@H]3CC4)c12` [Example 6-5]: the EC50 turned out to be 44.9 nM in assay [1]; 13.6 nM in assay [2] (Homo sapiens); 32.2 nM in assay [3] (Homo sapiens); 85.8 nM in assay [4] (Homo sapiens, ASPC1).

With `C#Cc1c(F)ccc2cc(O)cc(-c3nc4c5c(nc(OC[C@@]67CCCN6C[C@H](F)C7)nc5c3F)N3CCOCC[C@@H]3CCC4)c12` (single isomer, unassigned) [Example 10-2], the EC50 in assay [1] was 340 nM; in assay [2] (Homo sapiens), 248 nM; in assay [3] (Homo sapiens), greater than 1000 nM; in assay [4] (Homo sapiens, ASPC1), greater than 1000 nM.

With `CCc1c(F)ccc2cc(O)cc(-c3nc4c5c(nc(OC[C@@]67CCCN6C[C@H](F)C7)nc5c3F)N3CCOCCC3CC4)c12` (stereo partly drawn) [Example 8-1, 5-ethyl-6-fluoro-4-(1-fluoro-12-(((2R,7a5)-2-fluorotetrahydro-1H-pyrrolizin-7a(5H)-yl)methoxy)-5,5a,6,7,9,10-hexahydro-4H-8-oxa-3,10a,11,13-tetraazanaphtho[1,8-ab]heptalen-2-yl)naphthalen-2-ol], the EC50 came out at 3.19 nM in assay [1], 7.72 nM in assay [2], 13 nM in assay [3] and 42.4 nM in assay [4] (read-out: AsPC1 pERK EC50).

With `C#Cc1c(F)ccc2cccc(-c3nc4c5c(nc(OC[C@@]67CCCN6C[C@H](F)C7)nc5c3F)N3CCCOC[C@H]3CC4)c12` [Example 6-4], the EC50 in assay [1] was greater than 1000 nM; in assay [2] (Homo sapiens) it was greater than 1000 nM; in assay [3] (Homo sapiens), greater than 1000 nM; in assay [4] (Homo sapiens, ASPC1) it was greater than 1000 nM.

On to `C#Cc1c(F)ccc2cc(O)cc(-c3c(F)c4c5c(nc(OC[C@@]67CCCN6C[C@H](F)C7)nc5c3F)N3CCCOC[C@@H]3CC4)c12` (atropisomer, axis not shown) [Example 24-2, 4-((11R,14aS)-10,12-difluoro-8-(((2R,7aS)-2-fluorotetrahydro-1H-pyrrolizin-7a(5H)-yl)methoxy)-1,4,5,13,14,14a-hexahydro-3H-[1,4]oxazepino[4′,3′:1,7]azepino[2,3,4-de]quinazolin-11-yl)-5-ethynyl-6-fluoronaphthalen-2-ol], for which the EC50 came to 2.64 nM in assay [1], 0.82 nM in assay [2], 8.01 nM in assay [3] and 1.69 nM in assay [4] (read-out: AsPC1 pERK EC50).

On to `C#Cc1c(F)ccc2cc(N)cc(-c3cc4c5c(nc(OC[C@@]67CCCN6C[C@H](F)C7)nc5c3F)N3CCCOCC3CC4)c12` (some centres unmarked) [Example 3-2], for which the concentration giving a half-maximal response (EC50) in assay [1] was 46.5 nM; in assay [2] (Homo sapiens), 87.7 nM; in assay [3] (Homo sapiens), 104 nM; in assay [4] (Homo sapiens, ASPC1), 288 nM.

In the case of `C#Cc1c(F)ccc2cc(O)cc(-c3c(F)c4c5c(nc(OC[C@@]67CCCN6C[C@H](F)C7)nc5c3F)N3CCCOC[C@@H]3CC4)c12` (atropisomer, axis not shown) [Example 24-1, 4-((11S,14a5)-10,12-difluoro-8-(((2R,7a5)-2-fluorotetrahydro-1H-pyrrolizin-7a(5H1)-yl)methoxy)-1,4,5,13,14,14a-hexahydro-3H-[1,4]oxazepino[4′,3′:1,7]azepino[2,3,4-de]quinazolin-11-yl)-5-ethynyl-6-fluoronaphthalen-2-ol], the EC50 in assay [1] is 138 nM; in assay [2], 46.7 nM; in assay [3] it was 55.3 nM; in assay [4] (read-out: AsPC1 pERK EC50), 85 nM.

With `C#Cc1c(F)ccc2cc(N)cc(-c3nc4c5c(nc(OC[C@@]67CCCN6C[C@H](F)C7)nc5c3F)N3CCCOC[C@H]3C=C4C)c12` [Example 7-8], the EC50 in assay [1] was 41.1 nM; in assay [2] (Homo sapiens), 72.3 nM; in assay [3] (Homo sapiens) it was greater than 1000 nM; in assay [4] (Homo sapiens, ASPC1) it was 125 nM.

Regarding `C#Cc1c(F)ccc2cc(O)cc(-c3nc4c5c(nc(OC[C@@]67CCCN6C[C@H](F)C7)nc5c3F)N3CC(F)(F)COC[C@H]3CC4)c12` (single isomer, unassigned) [Example 17-1], the EC50 in assay [1] was found to be 2.95 nM; in assay [2] (Homo sapiens), 0.89 nM; in assay [3] (Homo sapiens), 7.68 nM; in assay [4] (Homo sapiens, ASPC1) it was 54.9 nM.

For `C#Cc1c(F)ccc2cc(O)cc(-c3nc4c5c(nc(OC[C@@]67CCCN6C[C@H](F)C7)nc5c3F)N3CCC(O)CC[C@@H]3CC4)c12` (some centres unmarked) [Example 6-29], the EC50 in assay [1] was found to be 46.3 nM; in assay [2] (Homo sapiens), 23.8 nM; in assay [3] (Homo sapiens), 452 nM; in assay [4] (Homo sapiens, ASPC1) it was 741 nM.

For the molecule `C#Cc1c(F)ccc2cc(N)cc(-c3nc4c5c(nc(OC[C@@]67CCCN6[C@H](COC(=O)N(C)C)CC7)nc5c3F)N3CCCOC[C@@H]3CC4)c12` [Example 23-4], the EC50 in assay [1] is 4.1 nM; in assay [3] (Homo sapiens), 57 nM; in assay [4] (Homo sapiens, ASPC1), 78 nM.

Consider `CCc1c(F)c(F)cc2cc(N)cc(-c3nc4c5c(nc(OCC67CCCN6CCC7)nc5c3F)N3CCCOC[C@@H]3CC4)c12` [Example 8-4], for which the EC50 in assay [1] is 128 nM; in assay [3] (Homo sapiens), greater than 1000 nM; in assay [4] (Homo sapiens, ASPC1), greater than 1000 nM.

As for `C#Cc1c(F)ccc2cc(N)cc(-c3c(F)c4c5c(nc(OC[C@@]67CCCN6C[C@H](F)C7)nc5c3F)N3CCCOC[C@@H]3CC4)c12` (atropisomer, axis not shown) [Example 25-1, 4-((11S,14aS)-10,12-difluoro-8-(((2R,7aS)-2-fluorotetrahydro-1H-pyrrolizin-7a(5H)-yl)methoxy)-1,4,5,13,14,14a-hexahydro-3H-[1,4]oxazepino[4′,3′:1,7]azepino[2,3,4-de]quinazolin-11-yl)-5-ethynyl-6-fluoronaphthalen-2-amine], the EC50 in assay [1], in assay [3] and in assay [4] (read-out: AsPC1 pERK EC50) was greater than 1000 nM in each case.

Regarding `C#Cc1c(F)ccc2cc(N)cc(-c3c(F)c4c5c(nc(OC[C@@]67CCCN6C[C@H](F)C7)nc5c3F)N3CCCOC[C@@H]3CC4)c12` (single isomer, unassigned) [Example 25-2], the results for the EC50 in assay [3] and in assay [4] (read-out: AsPC1 pERK EC50) were 92 nM and 67.2 nM, respectively.

As to `C#Cc1c(F)ccc2cc(N)cc(-c3nc4c5c(nc(OC[C@@]67CCCN6C[C@H](F)C7)nc5c3F)N3CCCOC[C@@H]3C=C4C)c12` [Example 7-7], the EC50 in assay [2] (Homo sapiens) was determined as 1.97 nM; in assay [3] (Homo sapiens) it was 4.01 nM; in assay [4] (Homo sapiens, ASPC1) it was 8.61 nM.

As for `C#Cc1c(F)ccc2cc(O)cc(-c3nc4c5c(nc(OC[C@@]67CCCN6C[C@H](F)C7)nc5c3F)N3CC(F)(F)COCC3CC4)c12` (mixture of isomers) [Example 6-17], the EC50 in assay [2] (Homo sapiens) amounted to 0.7 nM; in assay [3] (Homo sapiens) it was 3.71 nM; in assay [4] (Homo sapiens, ASPC1), 10.6 nM.

As to `Cc1c(F)c(N)cc(-c2nc3c4c(nc(OC[C@@]56CCCN5C[C@H](F)C6)nc4c2F)N2CCCOC[C@@H]2CC3)c1C(F)(F)F` [Example 7-11], the EC50 was 188 nM in assay [1]; 724 nM in assay [3] (Homo sapiens); greater than 1000 nM in assay [4] (Homo sapiens, ASPC1).
